Laboratory results taken from patent US10550143B2, “C,O-spiro aryl glycoside compounds, preparation therefor and use thereof” (SHANGHAI INSTITUTE OF MATERIA MEDICA, CHINESE ACADEMY OF …, priority 2015, dated 2020).

Columns and labels:
db/db mice [1] = assay: Chronic administration, glycosylated hemoglobin level in db/db mice; format: in vivo, mouse; conditions: for HbA1c Decline rate %: vs vehicle
Description: (§1) Oral gavage administrated, daily dose volume was 10 mL/kg, administered once daily. Administration time was 9: 00-10:00 daily, and the administration period was 5 weeks.
In the end of the above experiment, the orbital blood was taken from animals of each group and divided into two tubes, one was centrifuged to take blood cells for the determination of glycated hemoglobin content, the other tube was added with 25 μL EDTA in advance, centrifuged and the supernatant was taken to determine the indexes such as triglyceride (TG), total cholesterol (TC), total protein (TP), albumin, low density lipoprotein (LDL), high density lipoprotein (HDL), non-esterified fatty acid (NEFA) and so on.

db/db mice [2] = assay: Chronic administration, glucose-stimulated insulin release in db/db mice; format: in vivo, mouse; conditions: for Insulin AUC / Insulin (ng/ml) 0 min / Insulin (ng/ml) 15 min / Insulin (ng/ml) 30 min / Insulin (ng/ml) 60 min / Insulin (ng/ml) pre: glucose-stimulated insulin release, chronic administration
Description: as §1
The fourth week after administration, the mice were starved for 6 hours after morning administration and were orally administrated with glucose (1.5 g/kg), and blood was collected from the tail (10 μL EDTA+20 μL tail blood). Centrifuged and the supernatant was taken, stored at −20° C. for insulin test.

SD rats = assay: Acute administration of A28 at multiple doses, glucose tolerance of SD rats; format: in vivo, rat; conditions: SD rats OGTT; for Blood glucose level 0: before sugar
Description: (1) 80 SD rats were selected and starved overnight, took water freely, then randomly divided into 10 groups according to body weight and random blood glucose, 8 rats in each group. […] 1 h after oral gavage, 3 g/kg of glucose was orally administered to each group except blank control group, and the blood glucose level was monitored before the sugar administration, and at 15, 30, 60, 90 and 120 minutes after the sugar administration.
Average hypoglycemic rate %=(AUC0-120 min of solvent control group−AUC0-120 min of administration group)/(AUC0-120 min of solvent control group−AUC0-120 min of blank control group)*100%

CCc1ccc(Cc2cc3c(cc2Cl)CO[C@]32O[C@H](C)[C@@H](O)[C@H](O)[C@H]2O)s1 [Example A28, (1S,3′R,4′S,5′S,6′R)-6′-methyl-6-((5-ethylthienyl)-2-methyl)-5-chloro-3′,4′,5′,6′-tetrahydro-3H-spiro[isobenzofuran-1,2′-pyran]-3′,4′,5′-triol]
HbA1c (%) (db/db mice [1]; dose 0.3 mg/kg): 5.83 ± 0.36 %
HbA1c Decline rate % (db/db mice [1]; dose 0.3 mg/kg): 23.2%
HbA1c (%) (db/db mice [1]; dose 1 mg/kg): 6.02 ± 0.30 %
HbA1c Decline rate % (db/db mice [1]; dose 1 mg/kg): 20.7%
HbA1c (%) (db/db mice [1]; dose 3 mg/kg): 4.95 ± 0.37 %
HbA1c Decline rate % (db/db mice [1]; dose 3 mg/kg): 34.8%
HbA1c (%) (db/db mice [1]; dose 10 mg/kg): 4.50 ± 0.27 %
HbA1c Decline rate % (db/db mice [1]; dose 10 mg/kg): 40.7%
glucose-stimulated insulin release (db/db mice [2]; four weeks chronic administration, 0.3 mg/kg and 1 mg/kg): significantly improved glucose-stimulated insulin release in db/db mice in a dose-dependent manner
Insulin AUC (db/db mice [2]; dose 0.3 mg/kg): 43.85 ± 5.69
Insulin (ng/ml) 0 min (db/db mice [2]; dose 0.3 mg/kg): 21.58 ± 2.48 ng/mL
Insulin (ng/ml) 15 min (db/db mice [2]; dose 0.3 mg/kg): 51.67 ± 7.86 ng/mL
Insulin (ng/ml) 30 min (db/db mice [2]; dose 0.3 mg/kg): 46.22 ± 8.10 ng/mL
Insulin (ng/ml) 60 min (db/db mice [2]; dose 0.3 mg/kg): 43.61 ± 4.85 ng/mL
Insulin (ng/ml) pre (db/db mice [2]; dose 0.3 mg/kg): 7.68 ± 0.79 ng/mL
Insulin AUC (db/db mice [2]; dose 1 mg/kg): 35.92 ± 5.00
Insulin (ng/ml) 0 min (db/db mice [2]; dose 1 mg/kg): 17.47 ± 2.20 ng/mL
Insulin (ng/ml) 15 min (db/db mice [2]; dose 1 mg/kg): 41.94 ± 8.42 ng/mL
Insulin (ng/ml) 30 min (db/db mice [2]; dose 1 mg/kg): 40.07 ± 7.01 ng/mL
Insulin (ng/ml) 60 min (db/db mice [2]; dose 1 mg/kg): 32.89 ± 3.69 ng/mL
Insulin (ng/ml) pre (db/db mice [2]; dose 1 mg/kg): 7.86 ± 0.94 ng/mL
Insulin AUC (db/db mice [2]; dose 3 mg/kg): 32.49 ± 5.92
Insulin (ng/ml) 0 min (db/db mice [2]; dose 3 mg/kg): 17.57 ± 4.54 ng/mL
Insulin (ng/ml) 15 min (db/db mice [2]; dose 3 mg/kg): 38.42 ± 8.58 ng/mL
Insulin (ng/ml) 30 min (db/db mice [2]; dose 3 mg/kg): 36.06 ± 8.77 ng/mL
Insulin (ng/ml) 60 min (db/db mice [2]; dose 3 mg/kg): 28.68 ± 8.81 ng/mL
Insulin (ng/ml) pre (db/db mice [2]; dose 3 mg/kg): 7.92 ± 1.60 ng/mL
Insulin AUC (db/db mice [2]; dose 10 mg/kg): 17.20 ± 1.59
Insulin (ng/ml) 0 min (db/db mice [2]; dose 10 mg/kg): 9.02 ± 0.59 ng/mL
Insulin (ng/ml) 15 min (db/db mice [2]; dose 10 mg/kg): 16.70 ± 2.42 ng/mL
Insulin (ng/ml) 30 min (db/db mice [2]; dose 10 mg/kg): 13.42 ± 1.94 ng/mL
Insulin (ng/ml) 60 min (db/db mice [2]; dose 10 mg/kg): 27.45 ± 4.43 ng/mL
Insulin (ng/ml) pre (db/db mice [2]; dose 10 mg/kg): 7.45 ± 1.00 ng/mL
AUC0-2 h (SD rats; oral 0.3 mg/kg): 19.1 ± 1.77 mmol·h/L
Average hypoglycemic rate % (0-2 h) (SD rats; oral 0.3 mg/kg): 10.3%
Blood glucose level 15 min (SD rats; oral 0.3 mg/kg): 7.6 ± 0.8 mmol/L
Blood glucose level 30 min (SD rats; oral 0.3 mg/kg): 10.1 ± 1.6 mmol/L
Blood glucose level 60 min (SD rats; oral 0.3 mg/kg): 11.1 ± 1.3 mmol/L
Blood glucose level 90 min (SD rats; oral 0.3 mg/kg): 10.5 ± 0.8 mmol/L
Blood glucose level 120 min (SD rats; oral 0.3 mg/kg): 8.1 ± 1.3 mmol/L
Blood glucose level 0 (SD rats; oral 0.3 mg/kg): 5.0 ± 0.7 mmol/L
AUC0-2 h (SD rats; oral 1 mg/kg): 15.6 ± 0.9 mmol·h/L
Average hypoglycemic rate % (0-2 h) (SD rats; oral 1 mg/kg): 45.0%
Blood glucose level 15 min (SD rats; oral 1 mg/kg): 5.4 ± 0.9 mmol/L
Blood glucose level 30 min (SD rats; oral 1 mg/kg): 6.5 ± 1.1 mmol/L
Blood glucose level 60 min (SD rats; oral 1 mg/kg): 8.4 ± 0.6 mmol/L
Blood glucose level 90 min (SD rats; oral 1 mg/kg): 9.6 ± 1.2 mmol/L
Blood glucose level 120 min (SD rats; oral 1 mg/kg): 9.0 ± 1.3 mmol/L
Blood glucose level 0 (SD rats; oral 1 mg/kg): 4.4 ± 0.3 mmol/L
AUC0-2 h (SD rats; oral 3 mg/kg): 11.6 ± 0.9 mmol·h/L
Average hypoglycemic rate % (0-2 h) (SD rats; oral 3 mg/kg): 83.7%
Blood glucose level 15 min (SD rats; oral 3 mg/kg): 3.6 ± 0.5 mmol/L
Blood glucose level 30 min (SD rats; oral 3 mg/kg): 4.3 ± 0.3 mmol/L
Blood glucose level 60 min (SD rats; oral 3 mg/kg): 5.6 ± 0.7 mmol/L
